This is an account of results in ChEMBL document CHEMBL4725291, “Design, synthesis and biological evaluation of novel glyoxalase I inhibitors possessing diazenylbenzenesulfonamide moiety as potential anticancer agents” (Bioorg Med Chem, 2020).

The structures appear in SMILES notation. Bounds are passed on as bounds.

A word on the IC50: it is the point on the concentration scale where inhibition reaches its midpoint. Usually inhibition stands for how much of the control response was suppressed.

The target of experiment [1] is T1, Lactoylglutathione lyase (Homo sapiens, UniProt Q04760). The experiment in a line: Inhibition of recombinant human N-terminal Met and 6-His-tagged Glyoxalase-1 (Ala2 to Met184 residues) using glutathione and methylglyoxal as substrates preincubated for 15 mins followed by enzyme addition by double beam UV-vis spectrophotometric method.
Target sequence in this assay (Q04760 whole entry): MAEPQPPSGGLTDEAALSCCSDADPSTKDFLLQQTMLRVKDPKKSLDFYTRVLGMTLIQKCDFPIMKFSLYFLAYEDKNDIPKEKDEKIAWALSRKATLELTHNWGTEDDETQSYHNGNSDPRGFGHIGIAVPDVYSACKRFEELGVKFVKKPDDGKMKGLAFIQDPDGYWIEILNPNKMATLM
Experiment [2] concerns the target T1, Lactoylglutathione lyase. The experiment in a line: Inhibition of recombinant human N-terminal Met and 6-His-tagged Glyoxalase-1 (Ala2 to Met184 residues) at 25 uM using glutathione and methylglyoxal as substrates preincubated for 15 mins followed by enzyme addition by double beam UV-vis spectrophotometric method relative to control.
Target sequence in this assay (Q04760 2-184 limits assumed): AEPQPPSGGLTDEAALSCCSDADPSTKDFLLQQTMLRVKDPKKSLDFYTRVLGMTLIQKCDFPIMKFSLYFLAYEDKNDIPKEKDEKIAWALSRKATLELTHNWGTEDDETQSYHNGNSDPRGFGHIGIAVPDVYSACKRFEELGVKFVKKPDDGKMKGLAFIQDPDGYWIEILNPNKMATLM

Consider `NS(=O)(=O)c1cccc(/N=N/c2ccc(O)cc2)c1`, for which, in experiment [1], the half-maximal inhibitory concentration (IC50) amounted to 13.4 µM. Moreover, the inhibition in experiment [2] amounted to 59.9%. The matching figures for `Oc1ccc(/N=N/c2ccccc2)c2cccnc12`: 9.13 µM and 82.8%. The matching figures for `Cc1ccc(/N=N/c2ccc(O)c(C(=O)O)c2)cc1S(N)(=O)=O`: 11.5 µM and 67.7%. The corresponding values for `O=S(=O)(O)c1ccc(/N=N/c2ccc(O)c3ncccc23)cc1` are 9.7 µM and 75%. Take `NS(=O)(=O)c1cccc(/N=N/c2c(O)ccc3ccccc23)c1`: in experiment [1], the concentration for half-maximal inhibition (IC50) came to 37.5 µM. Besides, in experiment [2], the inhibition turned out to be 39%. The matching figures for `Cc1ccc(/N=N/c2cc(C(=O)O)c(O)c3ccccc23)cc1S(N)(=O)=O`: 1.13 µM and 100%. The corresponding values for `O=C(O)c1ccc(/N=N/c2ccc(O)c3ncccc23)cc1` are 4.45 µM and 79.9%. As for `Cc1ccc(/N=N/c2ccc(N)c3cccc(O)c23)cc1S(N)(=O)=O`, in experiment [1], the IC50 is > 100 µM. Consider `NS(=O)(=O)c1cccc(/N=N/c2ccc(O)c(C(=O)O)c2)c1`, for which the half-inhibitory concentration (IC50) in experiment [1] came out at 8.66 µM. Also, the inhibition in experiment [2] was 76.5%. With `Cc1ccc(/N=N/c2cc3ccccc3c(C(=O)O)c2O)cc1S(N)(=O)=O`, the IC50 in experiment [1] was > 100 µM. Consider `NS(=O)(=O)c1cccc(/N=N/c2cc3ccc(=O)oc3cc2O)c1`, for which the concentration for half-maximal inhibition (IC50) in experiment [1] is 18.9 µM. Moreover, the inhibition in experiment [2] stood at 64.4%. On to `Cc1ccc(/N=N/c2cc3ccccc3c(C=O)c2O)cc1S(N)(=O)=O`, for which the IC50 in experiment [1] amounted to 18.6 µM. Besides, in experiment [2], the inhibition was 57.4%. The matching figures for `Cc1ccc(/N=N/c2ccc(N)c3ccccc23)cc1S(N)(=O)=O`: 95.7 µM and 24.7%. The matching figures for `Cc1ccc(/N=N/c2ccc(O)c3ncccc23)cc1S(N)(=O)=O`: 1.28 µM and 92.1%.

For the compound `Cc1ccc(/N=N/c2ccc(N)c3ccc(O)cc23)cc1S(N)(=O)=O`, the inhibition in experiment [2] was found to be 76.4%. For `NS(=O)(=O)c1cccc(/N=N/c2cc(C(=O)O)c(O)c3ccccc23)c1`, the 50% inhibitory concentration (IC50) in experiment [1] came to 1.22 µM. Further, the inhibition in experiment [2] is 96.5%.

With `NS(=O)(=O)c1cccc(/N=N/c2ccc(O)c3ncccc23)c1`, the IC50 in experiment [1] turned out to be 1.36 µM. Further, in experiment [2], the inhibition turned out to be 98.3%.

With `Cc1ccc(/N=N/c2cc3ccc(=O)oc3cc2O)cc1S(N)(=O)=O`, the half-maximal inhibitory concentration (IC50) in experiment [1] worked out at 17.8 µM. For the same compound, the inhibition in experiment [2] came to 59%.

For the compound `Cc1ccc(/N=N/c2c(O)ccc3cccc(N)c23)cc1S(N)(=O)=O`, the half-inhibitory concentration (IC50) in experiment [1] was 24 µM. Moreover, the inhibition in experiment [2] was determined as 54%. The matching figures for `Nc1ccc(/N=N/c2cccc(S(N)(=O)=O)c2)c2ccccc12`: 85.8 µM and 28.1%. The matching figures for `Cc1ccc(/N=N/c2ccc(N)c3cc(O)ccc23)cc1S(N)(=O)=O`: 18.9 µM and 57.2%. For `Cc1ccc(/N=N/c2c(O)ccc3ccccc23)cc1S(N)(=O)=O`, the IC50 in experiment [1] amounted to 45 µM. In addition, in experiment [2], the inhibition stood at 34.5%. Consider `O=C(O)c1cccc(/N=N/c2ccc(O)c3ncccc23)c1`, for which the half-inhibitory concentration (IC50) in experiment [1] turned out to be 4.37 µM. In addition, the inhibition in experiment [2] worked out at 90.7%. The matching figures for `Nc1ccc(/N=N/c2cccc(S(N)(=O)=O)c2)c2ccc(O)cc12`: 21.8 µM and 66%. The matching figures for `NS(=O)(=O)c1cccc(/N=N/c2ccc(O)c3ccccc23)c1`: 52.2 µM and 38.3%.
